4 molecules from ChEMBL document CHEMBL3822418, “Enriching screening libraries with bioactive fragment space” (Bioorg Med Chem Lett, 2016) can be followed below.

This experiment addresses Casein kinase II subunit alpha (Homo sapiens, UniProt P68400). Nature of the experiment: Inhibition of human CK2alpha (2 to 391 residues) using [33P]-ATP by scintillation counting based radioactive filter binding assay.

Some results are limits rather than exact numbers.

Chain of Casein kinase II subunit alpha (P68400 whole entry, the tested form may be a part): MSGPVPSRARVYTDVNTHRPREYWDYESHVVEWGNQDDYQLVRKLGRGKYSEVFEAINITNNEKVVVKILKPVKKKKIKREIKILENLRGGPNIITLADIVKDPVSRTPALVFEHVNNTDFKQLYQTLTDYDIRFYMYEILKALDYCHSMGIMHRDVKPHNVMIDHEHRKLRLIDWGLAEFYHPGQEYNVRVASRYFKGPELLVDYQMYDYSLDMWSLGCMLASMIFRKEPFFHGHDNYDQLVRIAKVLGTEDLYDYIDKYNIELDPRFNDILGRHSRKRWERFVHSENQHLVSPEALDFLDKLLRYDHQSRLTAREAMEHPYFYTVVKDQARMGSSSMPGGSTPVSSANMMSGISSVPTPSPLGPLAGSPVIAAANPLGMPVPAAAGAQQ

Consider `O=C(Nc1ccccc1)c1n[nH]c2ccc([N+](=O)[O-])cc12`, for which the IC50 (commonly the concentration at which inhibition is half-maximal) was above 200 µM.

Consider `CCc1nnc(-c2cccc(NC(=O)c3n[nH]c4ccccc34)c2)o1`, for which the IC50 was above 200 µM.

As for `O=C(Nc1n[nH]c2cccc(F)c12)c1ccc2c(c1)CCO2`, the IC50 was above 200 µM.

On to `Cc1cc2cc(NC(=O)c3n[nH]c4ccccc34)ccc2[nH]1`, for which the IC50 was above 200 µM.
